In ChEMBL document CHEMBL5120794, “Development of 5-hydroxyl-1-azabenzanthrone derivatives as dual binding site and selective acetylcholinesterase inhibitors” (Eur J Med Chem, 2022):
One block for each compound: values may come before it. The source made the active and inactive calls. The calls are words filed in the database; no cut-off is given here.

Assays:
in vitro = conditions: PAMPA
Mus musculus [1] = assay: Antialzheimer activity in ICR mouse assessed as reduction in scopolamine-induced cognitive impairment at 2.5 to 10 mg/kg, ip administered for 14 consecutive days followed by scopolmaine-stimulation measured on day 21 by Morris water maze test; format: functional, organism-based; conditions: dose 2.5-10 mg/kg, time 21.0 day, DDE = dose-dependent effect
Acetylcholinesterase = Acetylcholinesterase (Electrophorus electricus, UniProt O42275); assay: Inhibition of Electrophorus electricus AchE using […] as substrate incubated for 10 mins followed by substrate addition measured at 0 to 180 secs by Ellman's method
[2] = target: Amyloid-beta precursor protein (Homo sapiens) (UniProt P05067); assay: Inhibition of amyloid beta (1 to 42) (unknown origin) self-induced aggregation at 25 uM measured after 46 to 48 hrs by Thioflavin binding assay relative to control; conditions: time 46-48 hrs
PC-12 [3] = assay: Cytoprotective activity against H2O2-induced oxidative damage in rat PC-12 cells assessed as cell viability at 1 uM preincubated for 4 hrs followed by H2O2 treatment for another 24 hrs by MTT assay; format: functional, cell-based; conditions: time 28.0 hrs
PC-12 [4] = assay: Cytoprotective activity against H2O2-induced oxidative damage in rat PC-12 cells assessed as cell viability at 1 to 3 uM preincubated for 4 hrs followed by H2O2 treatment for another 24 hrs by MTT assay; format: functional, cell-based; conditions: dose 1-3 µM, time 28.0 hrs
PC-12 [5] = assay: Inhibition of ROS production in rat PC-12 cells assessed as intracellular ROS level at 0.1 to 0.5 uM preincubated for 4 hrs followed by H2O2 treatment for another 24 hrs by flow cytometric analysis (RVB = 1.58); format: functional; conditions: dose 0.1-0.5 µM; time 28 hrs
PC-12 [6] = assay: Induction of apoptosis in rat PC-12 cells assessed as viable cells at 0.1 uM preincubated for 4 hrs followed by H2O2 treatment for another 24 hrs by Annexin V and PI double staining based flow cytometric analysis (RVB = 87.1 %); format: functional; conditions: time 28 hrs, read-out: Activity
PC-12 [7] = assay: Induction of apoptosis in rat PC-12 cells assessed as early apoptotic cells at 0.1 uM preincubated for 4 hrs followed by H2O2 treatment for another 24 hrs by Annexin V and PI double staining based flow cytometric analysis (RVB = 4.52 %); format: functional; conditions: time 28 hrs
PC-12 [8] = assay: Induction of apoptosis in rat PC-12 cells assessed as late apoptotic cells at 0.1 uM preincubated for 4 hrs followed by H2O2 treatment for another 24 hrs by Annexin V and PI double staining based flow cytometric analysis (RVB = 5.46 %); format: functional; conditions: time 28 hrs
PC-12 [9] = assay: Induction of apoptosis in rat PC-12 cells assessed as necrotic cells at 0.1 uM preincubated for 4 hrs followed by H2O2 treatment for another 24 hrs by Annexin V and PI double staining based flow cytometric analysis (RVB = 2.94 %); format: functional; conditions: time 28 hrs
PC-12 [10] = assay: Induction of apoptosis in rat PC-12 cells assessed as viable cells at 0.3 uM preincubated for 4 hrs followed by H2O2 treatment for another 24 hrs by Annexin V and PI double staining based flow cytometric analysis (RVB = 87.1 %); format: functional; conditions: time 28 hrs, read-out: Activity
PC-12 [11] = assay: Induction of apoptosis in rat PC-12 cells assessed as early apoptotic cells at 0.3 uM preincubated for 4 hrs followed by H2O2 treatment for another 24 hrs by Annexin V and PI double staining based flow cytometric analysis (RVB = 4.52 %); format: functional; conditions: time 28 hrs
PC-12 [12] = assay: Induction of apoptosis in rat PC-12 cells assessed as late apoptotic cells at 0.3 uM preincubated for 4 hrs followed by H2O2 treatment for another 24 hrs by Annexin V and PI double staining based flow cytometric analysis (RVB = 5.46 %); format: functional; conditions: time 28 hrs
PC-12 [13] = assay: Induction of apoptosis in rat PC-12 cells assessed as necrotic cells at 0.3 uM preincubated for 4 hrs followed by H2O2 treatment for another 24 hrs by Annexin V and PI double staining based flow cytometric analysis (RVB = 2.94 %); format: functional; conditions: time 28 hrs
PC-12 [14] = assay: Induction of apoptosis in rat PC-12 cells assessed as viable cells at 0.5 uM preincubated for 4 hrs followed by H2O2 treatment for another 24 hrs by Annexin V and PI double staining based flow cytometric analysis (RVB = 87.1 %); format: functional; conditions: time 28 hrs, read-out: Activity
PC-12 [15] = assay: Induction of apoptosis in rat PC-12 cells assessed as early apoptotic cells at 0.5 uM preincubated for 4 hrs followed by H2O2 treatment for another 24 hrs by Annexin V and PI double staining based flow cytometric analysis (RVB = 4.52 %); format: functional; conditions: time 28 hrs
PC-12 [16] = assay: Induction of apoptosis in rat PC-12 cells assessed as late apoptotic cells at 0.5 uM preincubated for 4 hrs followed by H2O2 treatment for another 24 hrs by Annexin V and PI double staining based flow cytometric analysis (RVB = 5.46 %); format: functional; conditions: time 28 hrs
PC-12 [17] = assay: Induction of apoptosis in rat PC-12 cells assessed as necrotic cells at 0.5 uM preincubated for 4 hrs followed by H2O2 treatment for another 24 hrs by Annexin V and PI double staining based flow cytometric analysis (RVB = 2.94 %); format: functional; conditions: time 28 hrs
PC-12 [18] = assay: Antioxidant activity in H2O2-induced oxidative stress in rat PC-12 cells assessed as increase in expression of HO-1 level preincubated for 4 hrs followed by H2O2 treatment for another 24 hrs by Western blotting analysis; format: functional, cell-based; conditions: dose 0.5-3 µM, time 28.0 hrs, DDE = dose-dependent effect
PC-12 [19] = assay: Antioxidant activity in H2O2-induced oxidative stress in rat PC-12 cells assessed as increase in expression of Nrf2 level preincubated for 4 hrs followed by H2O2 treatment for another 24 hrs by Western blotting analysis; format: functional, cell-based; conditions: dose 0.5-3 µM, time 28.0 hrs, DDE = dose-dependent effect
[20] = AUC (0 to 24 hrs) in Sprague-Dawley rat plasma at 10 mg/kg, IG measured at 10 to 1440 mins by LC-MS/MS analysis; format: ADME, organism-based; set-up: dose 10 mg/kg, time 10-1440 min, route ig; conditions: po
[21] = AUC (0 to 24 hrs) in Sprague-Dawley rat plasma at 2 mg/kg, iv measured at 10 to 1440 mins by LC-MS/MS analysis; format: ADME, organism-based; set-up: time lower 10 min, dose 2 mg/kg, time upper 1440 min, route iv
[22] = AUC (0 to infinity) in Sprague-Dawley rat plasma at 10 mg/kg, IG measured at 10 to 1440 mins by LC-MS/MS analysis; format: ADME, organism-based; set-up: time lower 10 min, dose 10 mg/kg, time upper 1440 min, route ig; conditions: po
[23] = AUC (0 to infinity) in Sprague-Dawley rat plasma at 2 mg/kg, iv measured at 10 to 1440 mins by LC-MS/MS analysis; format: ADME, organism-based; set-up: time lower 10 min, dose 2 mg/kg, time upper 1440 min, route iv
[24] = MRT infinity in Sprague-Dawley rat plasma at 10 mg/kg, IG measured at 10 to 1440 mins by LC-MS/MS analysis; format: ADME, organism-based; conditions: po, time 10-1440 min
[25] = MRT infinity in Sprague-Dawley rat plasma at 2 mg/kg, iv measured at 10 to 1440 mins by LC-MS/MS analysis; format: ADME, organism-based; conditions: time 10-1440 min
[26] = Half life in Sprague-Dawley rat plasma at 10 mg/kg, IG measured at 10 to 1440 mins by LC-MS/MS analysis; format: ADME, organism-based; conditions: po, time 10-1440 min
[27] = Half life in Sprague-Dawley rat plasma at 2 mg/kg, iv measured at 10 to 1440 mins by LC-MS/MS analysis; format: ADME, organism-based; conditions: time 10-1440 min
[28] = Tmax in Sprague-Dawley rat plasma at 10 mg/kg, IG measured at 10 to 1440 mins by LC-MS/MS analysis; format: ADME, organism-based; conditions: po, time 10-1440 min
[29] = Tmax in Sprague-Dawley rat plasma at 2 mg/kg, iv measured at 10 to 1440 mins by LC-MS/MS analysis; format: ADME, organism-based; conditions: time 10-1440 min
[30] = Cmax in Sprague-Dawley rat plasma at 10 mg/kg, IG measured at 10 to 1440 mins by LC-MS/MS analysis; format: ADME, organism-based; set-up: dose 10 mg/kg, time 10-1440 min, route ig; conditions: po
[31] = Cmax in Sprague-Dawley rat plasma at 2 mg/kg, iv measured at 10 to 1440 mins by LC-MS/MS analysis; format: ADME, organism-based; set-up: time lower 10 min, dose 2 mg/kg, time upper 1440 min, route iv
[32] = Clearance in Sprague-Dawley rat plasma at 10 mg/kg, IG measured at 10 to 1440 mins by LC-MS/MS analysis; format: ADME, organism-based; conditions: po, time 10-1440 min
[33] = Clearance in Sprague-Dawley rat plasma at 2 mg/kg, iv measured at 10 to 1440 mins by LC-MS/MS analysis; format: ADME, organism-based; conditions: time 10-1440 min
[34] = Bioavailability in Sprague-Dawley rat plasma at 10 mg/kg, IG measured at 10 to 1440 mins by LC-MS/MS analysis; format: ADME, organism-based; conditions: po, time 10-1440 min
Mus musculus [35] = assay: Antialzheimer activity in scopolamine-induced cognitive impairment ICR mouse model assessed as improvement of exploration ability at 2.5 to 10 mg/kg, ip administered for 14 consecutive days followed by scopolmaine-stimulation measured on day 21 by Y maze test; format: functional; conditions: dose 2.5-10 mg/kg, time 21 day
[36] = Toxicity in sopolamine-induced cognitive impairment ICR mouse model assessed as swimming motility impairment at 10 mg/kg, ip administered for 14 consecutive days followed by scopolmaine-stimulation measured on day 21; format: organism-based; conditions: in vivo, 504 h, time 21 day
[37] = Toxicity in sopolamine-induced cognitive impairment ICR mouse model assessed as emesis at 10 mg/kg, ip administered for 14 consecutive days followed by scopolmaine-stimulation measured on day 21; format: organism-based; conditions: in vivo, 504 h, time 21 day
[38] = Toxicity in sopolamine-induced cognitive impairment ICR mouse model assessed as diarrhea at 10 mg/kg, ip administered for 14 consecutive days followed by scopolmaine-stimulation measured on day 21; format: organism-based; conditions: in vivo, 504 h, time 21 day
[39] = Toxicity in sopolamine-induced cognitive impairment ICR mouse model assessed as morphological change in heart at 10 mg/kg, ip administered for 14 consecutive days followed by scopolmaine-stimulation measured on day 21 by H and E staining method; format: organism-based; conditions: in vivo, 504 h, time 21 day
[40] = Toxicity in sopolamine-induced cognitive impairment ICR mouse model assessed as morphological change in liver at 10 mg/kg, ip administered for 14 consecutive days followed by scopolmaine-stimulation measured on day 21 by H and E staining method; format: organism-based; conditions: in vivo, 504 h, time 21 day
[41] = Toxicity in sopolamine-induced cognitive impairment ICR mouse model assessed as morphological change in spleen at 10 mg/kg, ip administered for 14 consecutive days followed by scopolmaine-stimulation measured on day 21 by H and E staining method; format: organism-based; conditions: in vivo, 504 h, time 21 day
[42] = Toxicity in sopolamine-induced cognitive impairment ICR mouse model assessed as morphological change in lung at 10 mg/kg, ip administered for 14 consecutive days followed by scopolmaine-stimulation measured on day 21 by H and E staining method; format: organism-based; conditions: in vivo, 504 h, time 21 day
[43] = Toxicity in sopolamine-induced cognitive impairment ICR mouse model assessed as morphological change in renal at 10 mg/kg, ip administered for 14 consecutive days followed by scopolmaine-stimulation measured on day 21 by H and E staining method; format: organism-based; conditions: in vivo, 504 h, time 21 day
Cholinesterase = Cholinesterase (Equus caballus, UniProt P81908)
Sequence of Cholinesterase (P81908 whole entry): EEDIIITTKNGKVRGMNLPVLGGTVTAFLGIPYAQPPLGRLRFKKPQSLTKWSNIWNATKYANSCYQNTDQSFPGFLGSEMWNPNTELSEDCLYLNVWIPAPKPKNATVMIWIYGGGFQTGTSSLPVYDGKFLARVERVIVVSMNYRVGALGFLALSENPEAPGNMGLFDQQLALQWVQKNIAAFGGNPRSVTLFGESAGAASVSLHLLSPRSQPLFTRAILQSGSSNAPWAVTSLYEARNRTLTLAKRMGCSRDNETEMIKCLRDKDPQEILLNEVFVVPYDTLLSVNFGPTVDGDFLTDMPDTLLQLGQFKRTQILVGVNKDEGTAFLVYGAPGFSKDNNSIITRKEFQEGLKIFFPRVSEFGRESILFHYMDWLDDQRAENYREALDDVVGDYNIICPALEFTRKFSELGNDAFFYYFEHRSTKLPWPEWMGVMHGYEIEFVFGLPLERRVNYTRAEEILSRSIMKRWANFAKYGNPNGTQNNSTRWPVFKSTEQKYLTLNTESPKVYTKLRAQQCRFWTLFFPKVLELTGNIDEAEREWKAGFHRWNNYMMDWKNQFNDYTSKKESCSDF
Description: Inhibition of equine serum BchE using S-butyryl thiocholine iodide as substrate incubated for 10 mins followed by substrate addition measured at 0 to 180 secs by Ellman's method

Sequence of Amyloid-beta precursor protein (Homo sapiens) (P05067 whole entry): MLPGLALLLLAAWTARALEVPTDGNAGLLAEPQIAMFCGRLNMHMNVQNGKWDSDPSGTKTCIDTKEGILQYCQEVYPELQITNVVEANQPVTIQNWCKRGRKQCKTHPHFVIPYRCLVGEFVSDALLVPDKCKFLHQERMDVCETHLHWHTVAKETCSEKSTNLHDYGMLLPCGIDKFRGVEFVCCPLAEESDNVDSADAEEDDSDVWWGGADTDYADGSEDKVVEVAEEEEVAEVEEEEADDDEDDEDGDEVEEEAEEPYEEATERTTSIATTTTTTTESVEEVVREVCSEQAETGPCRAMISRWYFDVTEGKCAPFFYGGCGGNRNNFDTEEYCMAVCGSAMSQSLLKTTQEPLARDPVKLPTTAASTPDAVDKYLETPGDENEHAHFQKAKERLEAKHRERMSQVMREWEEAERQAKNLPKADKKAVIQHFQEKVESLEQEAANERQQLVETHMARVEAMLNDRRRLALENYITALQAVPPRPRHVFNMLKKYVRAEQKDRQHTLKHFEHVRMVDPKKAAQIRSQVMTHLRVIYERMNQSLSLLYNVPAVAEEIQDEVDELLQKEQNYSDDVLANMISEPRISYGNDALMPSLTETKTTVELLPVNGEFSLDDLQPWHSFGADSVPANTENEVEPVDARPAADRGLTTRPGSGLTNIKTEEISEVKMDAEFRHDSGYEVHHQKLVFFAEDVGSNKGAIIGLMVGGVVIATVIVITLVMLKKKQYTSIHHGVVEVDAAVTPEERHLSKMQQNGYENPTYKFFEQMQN
Sequence of Acetylcholinesterase (O42275 whole entry): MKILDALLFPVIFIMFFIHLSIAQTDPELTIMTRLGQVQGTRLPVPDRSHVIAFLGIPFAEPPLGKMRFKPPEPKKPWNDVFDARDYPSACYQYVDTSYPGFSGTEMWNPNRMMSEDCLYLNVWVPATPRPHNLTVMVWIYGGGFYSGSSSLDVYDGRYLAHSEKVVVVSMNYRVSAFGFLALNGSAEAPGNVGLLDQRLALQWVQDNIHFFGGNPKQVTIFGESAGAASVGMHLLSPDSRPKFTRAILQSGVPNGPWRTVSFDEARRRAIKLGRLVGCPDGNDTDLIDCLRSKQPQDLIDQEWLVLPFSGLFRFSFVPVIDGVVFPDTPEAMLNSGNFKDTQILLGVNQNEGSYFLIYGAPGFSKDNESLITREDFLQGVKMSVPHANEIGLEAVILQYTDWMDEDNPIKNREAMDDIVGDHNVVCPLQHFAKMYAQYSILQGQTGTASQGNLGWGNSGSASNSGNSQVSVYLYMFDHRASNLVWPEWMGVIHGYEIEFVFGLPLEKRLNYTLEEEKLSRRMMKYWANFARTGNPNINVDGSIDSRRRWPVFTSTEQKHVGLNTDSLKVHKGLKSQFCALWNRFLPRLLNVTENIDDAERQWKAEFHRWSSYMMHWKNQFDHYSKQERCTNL

Papp (in vitro): 5.7 ×10⁻⁶ cm/s
Structure (SMILES): Clc1cccc(Cl)c1N=C1NCCN1 [CLONIDINE]

Papp (in vitro): 0.9 ×10⁻⁶ cm/s
Structure (SMILES): CCn1cc(C(=O)O)c(=O)c2cc(F)c(N3CCNC(C)C3)c(F)c21 (configuration not stated) [LOMEFLOXACIN]

Structure (SMILES): CC1CCCCN1CCCOc1cc2c3c(nccc3c1)-c1ccccc1C2=O (configuration not stated)
Activity (Mus musculus [1]): Dde
IC50 (Acetylcholinesterase): 0.045 µM
inhibition [2]: 35.3%
Activity (PC-12 [3]): Active
Activity (PC-12 [4]): Active
Activity (PC-12 [5]): 1.1
viability at 0.1 µM (PC-12 [6]): 79.7%
Activity (PC-12 [7]): 6.76%
Activity (PC-12 [8]): 8.98%
Activity (PC-12 [9]): 4.58%
viability at 0.3 µM (PC-12 [10]): 86.9%
Activity (PC-12 [11]): 3.99%
Activity (PC-12 [12]): 6.09%
Activity (PC-12 [13]): 2.99%
viability at 0.5 µM (PC-12 [14]): 88.5%
Activity (PC-12 [15]): 3.71%
Activity (PC-12 [16]): 4.81%
Activity (PC-12 [17]): 2.96%
Activity (PC-12 [18]): Dde
Activity (PC-12 [19]): Dde
AUC(0-t) [20]: 704 ng·h/mL
AUC(0-t) [21]: 254 ng·h/mL
AUC(0-inf) [22]: 841 ng·h/mL
AUC(0-inf) [23]: 288 ng·h/mL
MRT inf [24]: 6.48 h
MRT inf [25]: 2.79 h
half-life [26]: 6.47 h
half-life [27]: 3.73 h
Tmax [28]: 3.33 h
Tmax [29]: 4.98 min
Cmax [30]: 68.5 ng/mL
Cmax [31]: 103 ng/mL
CL/F [32]: 208 mL/min/kg
clearance [33]: 116 mL/min/kg
bioavailability [34]: 55.5%
Activity (Mus musculus [35]): 45.98%
Activity [36]: Non-Toxic
Activity [37]: Non-Toxic
Activity [38]: Non-Toxic
Activity [39]: Non-Toxic
Activity [40]: Non-Toxic
Activity [41]: Non-Toxic
Activity [42]: Non-Toxic
Activity [43]: Non-Toxic
IC50 (Cholinesterase): 19.7 µM
Papp (in vitro): 16.6 ×10⁻⁶ cm/s

Structure (SMILES): O=C1c2ccccc2-c2nccc3cc(OCCN4CCOCC4)cc1c23
IC50 (Acetylcholinesterase): 19.7 µM
inhibition [2]: 24.4%
Activity (PC-12 [3]): Active
IC50 (Cholinesterase): > 100 µM
